Test system: HFD-induced obese mice
Assay: Serum lipids (TC, TG, HDL, LDL)
Type: in vivo, C57BL/6J mouse
Details: 12 weeks, mean ± SEM
Method: During the experimental period, the experimental group had free access to diet and drinking water. […] The same volume of PBS was administered to the negative control group and the positive control group. […] All mice were gavaged once a week for 12 weeks.
Blood samples were collected after 12 weeks of treatment from two mice from each experimental group in centrifuge tubes containing EDTA. Blood was drawn by puncturing the orbit through the orbit and within the orbit. Samples were centrifuged at 1200× for 15 minutes and incubated at 4° C. for 10 minutes. Serum aspartate aminotransferase (AST), alanine aminotransferase (ALT), TC, high-density lipoprotein (HDL), low-density lipoprotein (LDL) and TG were analyzed in the serum supernatant using an appropriate assay kit (Green Cross Biopharmaceutical, Yongin, Korea). The same samples were also used for hormone measurements.

SMILES: CCC(C)(C)C(=O)O[C@H]1C[C@@H](C)C=C2C=C[C@H](C)[C@H](CC[C@@H]3C[C@@H](O)CC(=O)O3)[C@H]21 [Simvastatin]
- TC: 51.50 ± 1.50 mg/dL
- TG: 30.00 ± 5.00 mg/dL

Source: US12397023B2, “Composition comprising Lactococcus chungangensis for prevention or treatment of fatty liver or metabolic syndrome” (CHUNG ANG UNIVERSITY INDUSTRY ACADEMIC COOPERATION …, priority 2018, dated 2025)
